Experimental data taken from PMC6353850, “Supersensitive Odorant Receptor Underscores Pleiotropic Roles of Indoles in Mosquito Ecology” (Frontiers in Cellular Neuroscience, 2019).
Structures can show the parent of a compound that is named as a salt. Where two headings read alike, the source gives them in different places.

Experiments:
[1] = molecular target: AaegOR9 (Aedes aegypti, UniProt Q177X5); assay: Two-electrode voltage clamp of Xenopus oocytes expressing AaegOR9-ORco (tuning curve and concentration-response); type: cell-based; settings: for Rank according to potency (No.): AaegOR9 tuning curve of Figure 1, 500 nM, 1 = most potent of 31; for Ligand potency in AaegOR9 tuning curve (in words) / AaegOR9 response relative to indole (tuning curve): 500 nM odorant; for Ligand potency in AaegOR9 tuning curve (in words): panel of 31 indole derivatives; for AaegOR9 response relative to indole (tuning curve): responses normalized to indole, n = 10
Sequence of AaegOR9 (Q178U6 whole entry): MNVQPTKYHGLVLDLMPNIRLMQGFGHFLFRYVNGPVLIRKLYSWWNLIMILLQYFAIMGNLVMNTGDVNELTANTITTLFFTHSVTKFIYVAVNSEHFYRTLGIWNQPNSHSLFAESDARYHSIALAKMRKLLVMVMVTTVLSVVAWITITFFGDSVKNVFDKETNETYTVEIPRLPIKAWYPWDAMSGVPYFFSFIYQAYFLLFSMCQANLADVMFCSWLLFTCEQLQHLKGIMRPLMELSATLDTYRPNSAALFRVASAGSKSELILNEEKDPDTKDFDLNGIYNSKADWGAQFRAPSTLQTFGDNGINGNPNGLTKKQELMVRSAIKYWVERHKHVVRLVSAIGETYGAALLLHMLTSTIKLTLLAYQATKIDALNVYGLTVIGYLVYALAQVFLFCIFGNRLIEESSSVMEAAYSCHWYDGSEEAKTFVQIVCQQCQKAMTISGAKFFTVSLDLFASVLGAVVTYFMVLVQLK
Sequence of AaegOR9 (Q177X5 entry or part of it): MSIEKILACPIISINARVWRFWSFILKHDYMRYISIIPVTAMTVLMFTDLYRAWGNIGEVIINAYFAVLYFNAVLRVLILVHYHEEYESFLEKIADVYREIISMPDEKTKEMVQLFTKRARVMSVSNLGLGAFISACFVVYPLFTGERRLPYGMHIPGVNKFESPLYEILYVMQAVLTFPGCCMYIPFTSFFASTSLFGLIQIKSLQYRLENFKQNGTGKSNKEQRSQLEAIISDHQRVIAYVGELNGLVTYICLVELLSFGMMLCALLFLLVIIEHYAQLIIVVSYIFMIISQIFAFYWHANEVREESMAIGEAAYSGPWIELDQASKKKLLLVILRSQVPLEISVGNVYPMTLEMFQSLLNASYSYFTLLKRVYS
Protocol: The methodologies and protocols have been described in details elsewhere (Bohbot and Dickens, [2009]). AaegOr9 and Aaeg-ORco cRNAs (Bohbot et al., [2011]) were synthesized from linearized pSP64DV expression vectors using the mMESSAGE mMACHINE® SP6 kit (Life Technologies). Stage V-VII oocytes were harvested from Xenopus laevis females, mechanically separated, treated with collagenase (8 mg/mL, 30 min, 18°C) and rinsed in washing solution (96 mM NaCl, 2 mM KCl, 5 mM MgCl2 and 5 mM HEPES, pH 7.6). Oocytes were microinjected with 27.6 ng AaegOr9 and AaegORco cRNAs, incubated at 18°C for 3–4 days in ND96 solution (96 mM NaCl, 2 mM KCl, 5 mM MgCl2, 0.8 mM CaCl2 and 5 mM HEPES, pH 7.6), supplemented with 5% dialyzed horse serum, 50 μg/mL tetracycline, 100 μg/mL streptomycin and 550 μg/mL sodium pyruvate. Whole-cell currents were recorded using the two-microelectrode voltage-clamp technique. During recording sessions, the holding potential was maintained at −80 mV using an OC-725C oocyte clamp (Warner Instruments, LLC, Hamden, CT, USA). Oocytes placed in a RC-3Z oocyte recording chamber (Warner Instruments, LLC, Hamden, CT, USA) were exposed to odorants for 8 s. Current was allowed to return to baseline between odorant applications. Data acquisition and concentration-response analyses were carried out with a Digidata 1550A and the pCLAMP10 software (Molecular Devices, Sunnyvale, CA, USA), and analyzed using GraphPad Prism 7 (GraphPad Software Inc., La Jolla, CA, USA). Stock concentration of odorants (10^−2 M) were dissolved in ringer solution containing 2% dimethyl sulfoxide (DMSO) in order to solubilize the hydrophobic indolic compounds.
The response profile was established using multiple sessions, each including six compounds at a time and indole as an internal reference. […] All the response values were normalized to the indole reference in each recording session (Supplementary Figure 1).
For the establishment of the concentration-response curves, oocytes were exposed to increasing concentrations of indole, skatole and indole-3-carboxaldehyde (I3C; Supplementary Figure 2). Quantitative characterization of OR sensitivity was estimated using the averaged effective concentration at 50% of the maximal response (EC50) over the sample population. The data to establish the concentration response curve and EC50 of AaegOR10-skatole was extracted from a previous study (Bohbot and Dickens, [2012]).
We also included indole and skatole as references (Bohbot et al., [2011]). The screen was carried out using a low odorant concentration (500 nM) in order to mitigate the caveats associated with high ligand concentrations, including receptor adaptation, antagonist effects and technical artifacts such as broad molecular receptive ranges (Bohbot and Pitts, [2015]).

[2] = test system: OR13-ORco; parameters: method as in Liu et al., 2013; settings: Helicoverpa armigera OR13-ORco; pheromone receptor; ref Liu et al., 2013; cited from earlier work
[3] = test system: OR01-ORco; parameters: method as in Mitsuno et al., 2008; settings: Plutella xyllostella OR01-ORco; pheromone receptor; ref Mitsuno et al., 2008; cited from earlier work
[4] = test system: OR13-ORco; parameters: method as in Wang et al., 2011; settings: Heliothis virescens OR13-ORco; pheromone receptor; ref Wang et al., 2011; cited from earlier work
[5] = Water solubility; type: physicochemical; settings: skatole vs indole
[6] = test system: AaegOR10; settings: Aedes aegypti OR10-ORco; kairomone receptor; ref Bohbot et al., 2012; cited from earlier work
[7] = test system: OR10-ORco; parameters: method as in Hughes et al., 2010; settings: Culex quinquefasciatus OR10-ORco; kairomone receptor; ref Hughes et al., 2010; cited from earlier work
[8] = test system: OR08-ORco; parameters: method as in Bohbot et al., 2009; settings: Aedes aegypti OR08-ORco; kairomone receptor; ref Bohbot et al., 2009; cited from earlier work
[9] = test system: OR03-ORco; parameters: method as in Liu et al., 2014; settings: Spodoptera exigua OR03-ORco; kairomone receptor; ref Liu et al., 2014; cited from earlier work
[10] = test system: OR11-ORco; parameters: method as in Wanner et al., 2007; settings: Apis mellifera OR11-ORco; pheromone receptor; ref Wanner et al., 2007; cited from earlier work
[11] = test system: OR65-ORco; parameters: method as in Wang et al., 2010; settings: Anopheles gambiae OR65-ORco; kairomone receptor; ref Wang et al., 2010; cited from earlier work
[12] = test system: OR56-ORco; parameters: method as in Tanaka et al., 2009; settings: Bombyx mori OR56-ORco; kairomone receptor; ref Tanaka et al., 2009; cited from earlier work
[13] = test system: OR10-ORco; parameters: method as in Xu et al., 2012; settings: Amyelois transitella OR10-ORco; pheromone receptor; ref Xu et al., 2012; cited from earlier work
[14] = test system: OR04-ORco; parameters: method as in Sun et al., 2013; settings: Plutella xyllostella OR04-ORco; pheromone receptor; ref Sun et al., 2013; cited from earlier work
[15] = test system: OR06-Orco; parameters: method as in Wanner et al., 2010; settings: Ostrinia nubilalis OR06-Orco; pheromone receptor; ref Wanner et al., 2010; cited from earlier work
[16] = test system: OR03-ORco; parameters: method as in Leary et al., 2012; settings: Ostrinia furnacalis OR03-ORco; pheromone receptor; ref Leary et al., 2012; cited from earlier work
[17] = test system: OR12-ORco; parameters: method as in Zhang et al., 2013; settings: Spodoptera litura OR12-ORco; kairomone receptor; ref Zhang et al., 2013; cited from earlier work
[18] = test system: OR01-ORco; parameters: method as in Xu et al., 2012; settings: Bombyx mori OR01-ORco; pheromone receptor; ref Xu et al., 2012; cited from earlier work

SMILES | Rank according to potency (No.) [1] | also measured
O=C1Nc2ccccc2C1=O [Isatin] | 16 | 
COc1ccc2[nH]c3c(c2c1)CCNC3 [Pinoline] | 31 | 
CCCC/C=C\CCCCCCCCCC=O [Z1 1-16:Ald] |  | EC50 [2]: 3.4 µM; EC50 [3]: 880 nM; EC50 [4]: 367 nM
Cc1c[nH]c2ccccc12 [skatole, 3-methylindole] | 1 | Ligand potency in AaegOR9 tuning curve (in words) [1]: most potent ligand; AaegOR9 response relative to indole (tuning curve) [1]: five times higher than indole; AaegOR9 response relative to indole (tuning curve) ([1]; listed as Skatole): five times more potent than indole; EC50 ([1]; AaegOR9, concentrations 100 pM to 10 μM): ~5 nM; Fold higher sensitivity of AaegOR9 to skatole than to indole (EC50 ratio) ([1]; AaegOR9, skatole vs indole): 176; EC50 ([1]; Aedes aegypti OR9-ORco, kairomone receptor, This study): 4.8 nM; Concentration range activating AaegOR9 ([1]; selective and reversible activation): high picomolar (below 1 nM) to low nanomolar (between 1 and 10 nM); Water solubility relative to indole [5]: seven times less water soluble; EC50 [6]: 109 nM; EC50 [7]: 90 nM
N#CCc1c[nH]c2ccccc12 [3-indole acetonitrile] | 4 | Ligand potency in AaegOR9 tuning curve (in words) [1]: next most potent ligands
C=C[C@H](O)CCCCC [(R)-(−)-1-octen-3-ol] |  | EC50 [8]: 158 nM
OCCc1c[nH]c2ccccc12 [3-(2-Hydroxyethyl) indole] | 12 | 
O=S(=O)(O)Oc1c[nH]c2ccccc12 [Indoxyl sulfate potassium salt] | 30 | 
CCCC/C=C\CCCCCCCC=O [Z9-14:Ald] |  | EC50 [4]: 240 nM
C=CC(=C)CC/C=C(\C)CCC=C(C)C [E-b-farnesene] |  | EC50 [9]: 300 nM
O=C(O)CCc1c[nH]c2ccccc12 [Indole-3-propionic acid] | 15 | 
O=C(O)Cc1c[nH]c2ccccc12 [3-Indole acetic acid] | 28 | 
Oc1cccc2[nH]ccc12 [4-Hydroxyindole] | 7 | 
O=C1Cc2ccccc2N1 [2-Oxindole] | 10 | 
C[C@H](NC(=O)Cc1c[nH]c2ccccc12)C(=O)O [Indole-3-acetyl-L-alanine] | 17 | 
c1ccc2ncccc2c1 [Quinoline] | 14 | 
O=C(O)CCCc1c[nH]c2ccccc12 [Indole-3-butyric acid] | 22 | 
c1ccc2c(c1)[nH]c1cnccc12 [Norharmane] | 13 | 
Cc1nccc2c1[nH]c1ccccc12 [Harmane] | 6 | 
COc1ccc2c3c([nH]c2c1)C(C)=NCC3 [Harmaline] | 20 | 
OCc1c[nH]c2ccccc12 [Indole-3-carbinole] | 19 | Ligand potency in AaegOR9 tuning curve (in words) [1]: among the least potent ligands

SMILES | Rank according to potency (No.) [1] | also measured
CC(=O)CCCCCC=CC(=O)O [9-oxo-2-decenoic acid] |  | EC50 [10]: 280 nM
C=CCc1ccc(O)c(OC)c1 [Eugenol] |  | EC50 [11]: 222 nM
NCCc1c[nH]c2ccccc12 [Tryptamine] | 24 | 
CC/C=C\CC1=C(C)CCC1=O [Z-jasmone] |  | EC50 [12]: 6 µM
CN(C)Cc1c[nH]c2ccccc12 [Gramine] | 27 | Ligand potency in AaegOR9 tuning curve (in words) [1]: among the least potent ligands
CC/C=C\C=C/CCCCCCCCCC=O [Z1 1Z13-16:Ald] |  | EC50 [13]: 499 nM
Oc1ccc2[nH]ccc2c1 [5-Hydroxyindole] | 9 | 
O=Cc1c[nH]c2ccccc12 [I3C, indole-3-carboxaldehyde] | 2 | Ligand potency in AaegOR9 tuning curve (in words) [1]: next most potent ligands
COC(=O)Cc1c[nH]c2ccccc12 [Methyl indole-3-acetate] | 25 | 
ON=CCc1c[nH]c2ccccc12 [Indole-3-acetaldoxime] | 21 | 
CCCC/C=C\CCCCCCCCOC(C)=O [Z9-14: OAc] |  | EC50 [14]: 243 nM
O=C(O)C=Cc1c[nH]c2ccccc12 [3-Indoleacrylic acid] | 18 | 
NCCc1c[nH]c2ccc(O)cc12 [Serotonin] | 29 | 
c1ccc2c(Cc3c[nH]c4ccccc34)c[nH]c2c1 [3,3’-Diindolemethane] | 8 | 
COC(=O)c1c[nH]c2ccccc12 [Methyl indole-3-carboxylate] | 5 | Ligand potency in AaegOR9 tuning curve (in words) [1]: next most potent ligands
NC(=O)Cc1c[nH]c2ccccc12 [Indole-3-acetamide] | 23 | 
CC/C=C\CCCCCCCCCCOC(C)=O [Z1 1-14:OAc] |  | EC50 [15]: 860 nM; EC50 [16]: 25 nM
O=C1/C(=C2\Nc3ccccc3C2=O)Nc2ccccc21 [Indigo] | 26 | 
CC/C=C\CCOC(C)=O [Z3-6:OAc] |  | EC50 [17]: 339 nM
O=C(O)c1c[nH]c2ccccc12 [Indole-3-carboxylic acid] | 11 | 
CCC/C=C\C=C\CCCCCCCCCO [E10,Z12-16:OH (Bombykol), Bombykol] |  | EC50 [18]: 45.4 nM
